ChEMBL document CHEMBL1154856, “Leuconicines A-G and (-)-eburnamaline, biologically active strychnan and eburnan alkaloids from Leuconotis” (J Nat Prod, 2009)

Assays:
Format in all cases: functional, cell-based
[1] = Cytotoxicity against vincristine-resistant human KB/VJ300 cells
[2] = Cytotoxicity against vincristine-resistant human KB/VJ300 cells in presence of 0.1 ug/ml vincristine
[3] = test system: KB; experiment: Cytotoxicity against vincristine-sensitive human KB cells
[4] = Cytotoxicity against vincristine-resistant human KB/VJ300 cells in presence of 0.121 uM vincristine

Structure (SMILES)	IC50 [1] [µg/mL]	IC50 [2] [µg/mL]	IC50 [3] [µg/mL]	IC50 [4] [µM]
CC[C@@]12CCCN3CCc4c(n(c5ccccc45)[C@H](O)[C@@H]1O)[C@H]32	> 25	> 25	> 25	–
CCC1=CN2CC[C@]34c5ccccc5-n5c3c(cc(C(=O)O)c5=O)[C@H]1C[C@H]24 [LEUCONICINE E]	> 25	13.5	> 25	37.6
CC[C@@H]1C[N+]2([O-])CC[C@]34c5ccccc5-n5c3c(cc(C(=O)OC)c5=O)[C@H]1C[C@@H]42 (some centres undefined) [LEUCONICINE G]	> 25	> 25	> 25	–
CC[C@@H]1CN2CC[C@]34c5ccccc5-n5c3c(cc(C(=O)OC)c5=O)[C@H]1C[C@H]24 [LEUCONICINE B]	> 25	1.98	> 25	5.27
CC[C@@H]1C[N+]2([O-])CC[C@]34c5ccccc5-n5c3c(cc(C(N)=O)c5=O)[C@H]1C[C@@H]42 (some centres undefined) [LEUCONICINE F]	> 25	> 25	> 25	–
CCC1=CN2CC[C@]34c5ccccc5-n5c3c(cc(C(N)=O)c5=O)[C@H]1C[C@H]24 [LEUCONICINE C]	> 25	3.86	> 25	10.8
CCC1=CN2CC[C@]34c5ccccc5-n5c3c(cc(C(=O)OC)c5=O)[C@H]1C[C@H]24 [MELODININE B]	> 25	4.62	> 25	12.3
CC[C@@H]1CN2CC[C@]34c5ccccc5-n5c3c(cc(C(N)=O)c5=O)[C@H]1C[C@H]24 [LEUCONICINE A]	> 25	2.57	> 25	7.12
